Results from US20190255019A1, “NOVEL DOSAGE REGIMEN” (Biogen MA Inc., priority 2016, published 2019).
Read-outs that look alike come from different tables or passages of the source.

Columns and labels:
[1] = Carbamazepine interaction study, BIIB074 steady-state PK; assay type: in vivo, human; details: for AUC / Cmax: human, in vivo; for AUC: read-out: AUC(0-tau) Adj Geo Mean; for Cmax: read-out: Cmax Adj Geo Mean
Experimental: The interaction between BIIB074 and carbamazepine (CBZ) was investigated in a double-blind, randomized, placebo-controlled, 3-period, phase-1 study. Healthy subjects were randomized by sex to either CBZ (100 mg twice daily [BID] days 1-3, 200 mg BID days 4-21) or placebo (BID days 1-21). During days 16-21, subjects in both groups also received BIIB074 150 mg 3-times daily (TID). Thereafter, treatment with CBZ or placebo was discontinued, while dosing with BIIB074 was continued for another 7 days (days 22-28). The primary objective was to evaluate the effect of CBZ on BIIB074 steady-state PK; a secondary objective was to observe BIIB074 PK recovery following CBZ discontinuation.

healthy participants [2] = test: Safety (adverse events, ECG) in 300/400 mg BID study; assay type: in vivo, human
Experimental: Safety was assessed through monitoring of adverse events (AEs), vital signs, electrocardiogram (ECG), and laboratory safety tests (including clinical chemistry). The safety population was the primary analysis population for this study and included all participants who received one or more doses of BIIB074. The PK population was defined as participants in the safety population for whom a PK sample was obtained and analysed.

[3] = PK modelling of plasma exposure of Example 1 for different dosing regimens; design: species or system human; details: modelled
From the text: In Table 1, free plasma CMax exposures of Example 1 obtained from modelling different dosing regimens were used to quantify the resulting amount of block at the primary target hNaV1.7. […] Doses of marketed drugs used in trigeminal neuralgia were compared using the same paradigm.

dogs = details: dog, in vivo
From the text: The 36 day treatment duration in this study was rationally designed to determine whether tolerance developed for any potential effects of BIIB074 on SBP or DBP, since BP effects resolved by day 28 in the earlier phase 1 trial. The data from this study show a slight trend towards a decrease in the BP difference between BIIB074 and placebo between day 4 and day 35, although differences were minimal at all time points. […] Thus, the body of evidence, encompassing clinical and preclinical studies, supports safety and minimal effects of BIIB074 on BP/cardiovascular parameters.

healthy participants [4] = test: Phase 1 cross-over ambulatory blood pressure monitoring (ABPM) study, 300/400 mg BID; assay type: in vivo, human; details: for Observations with DBP: Change > 10 and absolute value > 80 mmHg / Observations with SBP: Change > 10 and absolute value > 130 mmHg: outpatient, number of observations (%)
Experimental: This study reports the results of a Phase 1, randomized cross-over trial designed to assess inpatient and outpatient ambulatory blood pressure monitoring (ABPM) in healthy volunteers treated with the compound of Example 1 (BIIB074) for 36 days.
This was a Phase 1, randomized, double-blind, placebo-controlled, repeat dose, 2-period cross-over study to investigate the effect of BIIB074 300-400 mg bid on ambulatory blood pressure (ABP) in healthy participants (FIG. 2). The study comprised: screening (to occur a maximum of 30 days before the first baseline assessment); two 36-day treatment periods, each preceded by a baseline visit and separated by a 7-day washout (to minimize possible carry over effects); and a follow-up period of 7-14 days after last dose. Prior to this study, no females had received BIIB074; for this reason, a single dose BIIB074 session at the dose level of 400 mg was also conducted in female participants one week prior to the period 1 baseline visit. Following this session, some participants were predicted to exceed the predefined PK limit (area under the plasma concentration-time curve [AUC] 97 μg·h/mL) when receiving 400 mg bid at steady state. Therefore, in the subsequent phases of the study, all female participants received a lower dose of 300 mg bid (males received 400 mg bid).
The primary endpoint was change in 24 h average SBP and DBP from baseline to day 36 as determined by ABPM. Secondary outcome measures included: change in 24 h average SBP and DBP from baseline to days 4 and 15; change in average SBP and DBP within a 12 h dosing interval from baseline to days 14 and 35 (inpatient); change in 24 h average ambulatory heart rate from baseline to days 4, 15 and 36; proportion of participants whose 24 h SBP and DBP increased by <5, 5-9, 10-14, 15-19, and >20 mm Hg compared with baseline; PK parameters of BIIB074 following a single oral dose in healthy female participants, and following repeated oral doses given twice daily to healthy male and female participants; PK/pharmacodynamic (PD) analyses to examine the correlation between ABP and plasma levels and/or metrics of the systemic exposure of BIIB074.
ABP was collected over 24 hours on an outpatient basis at baseline and at days 4, 15 and 36, and over 12 hours on an inpatient basis at baseline, and at days 14 and 35. The ABPM device was placed on the non-dominant arm (except in clinical situations that prohibited measuring BP in the non-dominant arm). BP and heart rate were measured every 15 minutes.
Non-inferiority was based on the one-sided 95% confidence interval (CI) for BIIB074-placebo excluding […] in SBP or DBP. It was planned to recruit approximately 60 participants in order to obtain a minimum of 48 evaluable for ABPM during the repeat dose phase, for at least 90% power, assuming a within-subject standard deviation (SDw) of 8.21 mmHg.
ABPM data were analyzed using a repeated measures mixed effects model, whereby fixed effects were treatment, day, treatment*day, period, average baseline*day, period adjusted baseline*day, sex and treatment*sex; random effect was subject; and repeated effect was day. All summary statistics were carried out using SAS 8.02 for UNIX running under the Harmonisation of Analysis and Reporting Program (HARP) environment. PK parameters were calculated by standard non-compartmental analysis according to working practices and using Wn Nonlin Pro v. 5.2.

[5] = day 28, CBZ discontinued for 7 days
[6] = oral, 150 mg TID, day 28, Carbamazepine (Group 1), 7 days after CBZ discontinuation
[7] = oral, 150 mg TID, day 28, Placebo (Group 2)
[8] = oral, 150 mg, day 21, Carbamazepine (Group 1), BIIB074 150 mg TID
[9] = oral, 150 mg, day 21, Placebo (Group 2), BIIB074 150 mg TID

Cl.NC(=O)[C@@H]1CC[C@H](c2ccc(OCc3ccccc3F)cc2)N1 [Example 1, (5R)-5-(4-{[(2-Fluorophenyl)methyl]oxy}phenyl)-L-prolinamide hydrochloride]
tolerability when co-administered with CBZ ([1]; 150 mg TID): appeared well tolerated
AUC(0-tau) Ratio (%) Group 1/Group 2 ([1]; day 21): 68.4%
Cmax Ratio (%) Group 1/Group 2 ([1]; day 21): 73.7%
reduction of AUC(0-tau) by CBZ co-administration vs placebo ([1]; day 21): ~31.6%
reduction of Cmax by CBZ co-administration vs placebo ([1]; day 21): ~26.3%
AUC(0-tau) Ratio (%) Group 1/Group 2 ([1]; day 28): 75.5%
Cmax Ratio (%) Group 1/Group 2 ([1]; day 28): 78.6%
AUC(0-tau) lower than in the placebo group [1, 5]: ~24.5%
Cmax lower than in the placebo group [1, 5]: ~21.4%
AUC [1, 6]: 12.1 µg·h/mL
Cmax [1, 6]: 2.15 µg/mL
AUC [1, 7]: 16 µg·h/mL
Cmax [1, 7]: 2.73 µg/mL
AUC [1, 8]: 12 µg·h/mL
Cmax [1, 8]: 2.16 µg/mL
AUC [1, 9]: 17.5 µg·h/mL
Cmax [1, 9]: 2.93 µg/mL
median time to maximum concentration ([1]; oral, with CBZ or placebo, postdose): 1 to 1.5 h
AEs of moderate intensity (healthy participants [2]; 300-400 mg bid repeat dose): 9
AEs of severe intensity (healthy participants [2]; 300-400 mg bid repeat dose): 2
participants withdrawn due to AEs while on BIIB074 (healthy participants [2]; of 7 AE withdrawals): 5
serious AEs (healthy participants [2]; whole study): No serious AEs were reported
CTrough exposure at steady state ([3]; 150 mg TID): 1099 ng/mL
Cmax Free plasma ([3]; 150 mg tid): 0.21 µM
Cmax total plasma ([3]; 150 mg tid): (2.06 μg/ml total plasma)
Cmax Free plasma ([3]; 200 mg bid): 0.29 µM
Cmax total plasma ([3]; 200 mg bid): (2.8 μg/ml total plasma)
CTrough exposure at steady state ([3]; 250 mg TID): 1750 ng/mL
Cmax Free plasma ([3]; 250 mg tid): 0.36 µM
Cmax total plasma ([3]; 250 mg tid): (3.43 μg/ml total plasma)
Cmax Free plasma ([3]; 350 mg bid): 0.37 µM
Cmax total plasma ([3]; 350 mg bid): (3.74 μg/ml total plasma)
effects on cardiovascular parameters (dogs): no effects of BIIB074 on cardiovascular parameters in dogs
average increase of SBP over the 24 h interval (healthy participants [4]; PK/PD, inpatient ABPM): < 2 mmHg
observations with DBP increase more than 10 mmHg and absolute value >80 mmHg (healthy participants [4]; day 36): 6.9%
observations with SBP increase more than 10 mmHg and absolute value >130 mmHg (healthy participants [4]; day 36): 5.0%
slight increase in change from baseline for SBP, DBP and heart rate (healthy participants [4]; inpatient ABPM, days 14 and 35): 2.0-2.5 mmHg/bpm
observations in category increase from baseline SBP >30 mmHg (healthy participants [4]; outpatient 24 h, day 36, 4/1249 observations): 0%
observations in category increase from baseline DBP >20 mmHg (healthy participants [4]; outpatient 24 h, day 36, 35/1249 observations): 3%
Observations with DBP: Change > 10 and absolute value > 80 mmHg (healthy participants [4]; day 4, 300-400 mg repeat dose): 137 (10.6%)
Observations with SBP: Change > 10 and absolute value > 130 mmHg (healthy participants [4]; day 4, 300-400 mg repeat dose): 116 (9.0%)
Observations with DBP: Change > 10 and absolute value > 80 mmHg (healthy participants [4]; day 15, 300-400 mg repeat dose): 109 (8.3%)
Observations with SBP: Change > 10 and absolute value > 130 mmHg (healthy participants [4]; day 15, 300-400 mg repeat dose): 95 (7.2%)
Observations with DBP: Change > 10 and absolute value > 80 mmHg (healthy participants [4]; day 36, 300-400 mg repeat dose): 86 (6.9%)
Observations with SBP: Change > 10 and absolute value > 130 mmHg (healthy participants [4]; day 36, 300-400 mg repeat dose): 63 (5.0%)
overall change in SBP and DBP, outpatient and inpatient ABPM (healthy participants [4]; repeat doses for 36 days): lack of clinically relevant change in SBP and DBP
